Activity calls are given as the source filed them. How the calls were made is not given here.

The record followed here is PubChem BioAssay AID1259408 (Genetic Toxicology Data Bank (GENE-TOX), 2018).

For this data set, the system named is GENE-TOX genotoxicity assays, various organisms and cells. Briefly: GENE-TOX mutagenicity studies. Conditions: for call: Assay Type: In vivo carcinogenicity studies.
Setting [1] is: Species/Cell Type: Nonhuman, Assay Code: CCG+, Evaluation Type: Evaluation A (Pre-1980).
[2] abbreviates: Species/Cell Type: Salmonella typhimurium (one or more of the five standard strains: TA98, TA100, TA1535, TA1537, and TA1538), Assay Type: Histidine reverse gene mutation, Ames assay, Assay Code: SALT, Evaluation Type: Evaluation A (Pre-1980).
The mark [3] stands for this setting: Species/Cell Type: Nonhuman, Assay Type: Sister-chromatid exchange (SCE) in vitro, Assay Code: SC2+D, Dose Response: With dose response, Evaluation Type: Evaluation B (Post-1980).
[4] abbreviates: Species/Cell Type: Salmonella typhimurium (one or more of the five standard strains: TA98, TA100, TA1535, TA1537, and TA1538), Assay Type: Histidine reverse gene mutation, Ames assay, Assay Code: SAL+, Evaluation Type: Evaluation A (Pre-1980).
Setting [5] is: Species/Cell Type: Human diploid fibroblasts, Assay Type: Unscheduled DNA synthesis (UDS) in vitro, DNA effects, Assay Code: UDH-, Evaluation Type: Evaluation A (Pre-1980).
The mark [6] stands for this setting: Species/Cell Type: Saccharomyces cerevisiae, Assay Type: Mitotic recombination or gene conversion, Assay Code: YEH-, Evaluation Type: Evaluation A (Pre-1980).

Regarding `CCSCCC(N)C(=O)O` (stereo not given), the mutagenic call runs as follows: (Species/Cell Type: Neurospora crassa, Assay Type: Aneuploidy, chromosome aberrations, Assay Code: NEN-, Evaluation Type: Evaluation A (Pre-1980)) “inactive; negative”; (Species/Cell Type: Nonhuman, Assay Type: Sister-chromatid exchange (SCE) in vitro, Assay Code: SC2+, Evaluation Type: Evaluation B (Post-1980)) “active; positive”. Further, the call under setting [1] was “active; positive”.
`CCNc1nc(NC(C)C)nc(SC)n1`: the mutagenic call (Species/Cell Type: Saccharomyces cerevisiae, Assay Type: Mitotic recombination or gene conversion, Assay Code: YEC-, Evaluation Type: Evaluation A (Pre-1980)) was “inactive; negative”.
As to `O[C@@H]1C=Cc2c(cc3ccc4cccc5ccc2c3c45)[C@H]1O`, the mutagenic call (Species/Cell Type: Chinese hamster lung (V79) cells, Assay Type: Forward gene mutation at the HPRT or ouabain locus, Assay Code: V79+, Evaluation Type: Evaluation A (Pre-1980)) was “active; positive”. Further, the call (Species/Cell Type: Nonhuman, Assay Code: CCG+L, Evaluation Type: Evaluation A (Pre-1980)) is “active; positive”.
`FC(F)C(F)(F)C(F)(F)OC(F)(F)F`: the mutagenic call under setting [2] is “no conclusion”.
On to `NCCSSCCN`, for which the mutagenic call is, setting by setting: (Species/Cell Type: Human lymphocytes, Assay Type: Sister-chromatid exchange (SCE) in vitro, Assay Code: SCLT, Evaluation Type: Evaluation B (Post-1980)) “no conclusion”; (Species/Cell Type: Human, Assay Type: Sister-chromatid exchange (SCE) in vitro, Assay Code: SC1T, Evaluation Type: Evaluation B (Post-1980)) “no conclusion”; under setting [3], “active; positive”.
For `Cc1ccc([N+](=O)[O-])c(O)c1`, the mutagenic call (Species/Cell Type: Allium cepa, Assay Type: Chromosome aberrations, Assay Code: ALC+, Evaluation Type: Evaluation A (Pre-1980)) was “active; positive”.
`ClC(Cl)(Cl)c1ccccc1`: the mutagenic call (Species/Cell Type: Bacillus subtilis (H17 vs M45), Assay Type: Rec-assay, spot test, DNA effects (bacterial DNA repair), Assay Code: REW+, Evaluation Type: Evaluation A (Pre-1980)) was “active; positive”. Under setting [1], the call was “active; positive”.
For the molecule `Cn1cc[nH]c1=S`, for the setting “Species/Cell Type: Mammalian polychromatic erythrocytes, Assay Type: Micronucleus test, chromosome aberrations, Assay Code: MNTT, Evaluation Type: Evaluation B (Post-1980)”, the mutagenic call is given as “no conclusion”.
With `Nc1nc(-c2ccc([N+](=O)[O-])o2)cs1`, the mutagenic call is “active; positive” (Species/Cell Type: Escherichia coli WP2, Assay Type: Tryptophan reverse gene mutation, Assay Code: WP2+, Evaluation Type: Evaluation A (Pre-1980)); “inactive; negative” (Species/Cell Type: Escherichia coli WP2 UVRA, Assay Type: Tryptophan reverse gene mutation, Assay Code: WPU-, Evaluation Type: Evaluation A (Pre-1980)); “active; positive” under setting [3]; “active; positive” under setting [4].
Turning to `CC1C(C)N(N=O)C(C)C(C)N1N=O` (stereo not given), the mutagenic call under setting [2] is “no conclusion”.
With `ClC1=C(Cl)[C@]2(Cl)[C@@H]3[C@H]4C[C@H]([C@@H]5O[C@H]45)[C@@H]3[C@@]1(Cl)C2(Cl)Cl`, the mutagenic call is “no conclusion” (Species/Cell Type: Drosophila melanogaster, Assay Type: Sex-linked recessive lethal gene mutation, Assay Code: SRLT, Evaluation Type: Evaluation A (Pre-1980)); “no conclusion” (Species/Cell Type: Hordeum vulgare (barley), Assay Type: Chromosome aberrations, Assay Code: HOCT, Evaluation Type: Evaluation A (Pre-1980)); “inactive; negative” under setting [5]; “inactive; negative” under setting [6]; “inactive; negative” (Species/Cell Type: Salmonella typhimurium (one or more of the five standard strains: TA98, TA100, TA1535, TA1537, and TA1538), Assay Type: Histidine reverse gene mutation, Ames assay, Assay Code: SAL-, Evaluation Type: Evaluation A (Pre-1980)); “active; positive” (Species/Cell Type: Vicia faba, Assay Type: Chromosome aberrations, Assay Code: VIC+D, Dose Response: With dose response, Evaluation Type: Evaluation A (Pre-1980)). Further, under “Species/Cell Type: Nonhuman, Assay Code: CCG-L, Evaluation Type: Evaluation A (Pre-1980)”, the call is “inactive; negative”.
As for `Cc1ccc2c(c1[N+](=O)[O-])C(=O)c1cccc([N+](=O)[O-])c1C2=O`, the mutagenic call under setting [4] is “active; positive”.
Still for that read-out and setting: then `O=C1c2ccccc2-c2ccc(Oc3ccc(S(=O)(=O)O)cc3)c3cccc1c23`, with “active; positive”.
Consider `CC(=O)Nc1ccc2c(c1)Cc1cc(O)ccc1-2`, for which the mutagenic call reads like this: (Species/Cell Type: Escherichia coli polA (W3110 vs P3478), Assay Type: Rec-assay, DNA effects (bacterial DNA repair), Assay Code: RE2+, Evaluation Type: Evaluation A (Pre-1980)) “active; positive”; (Species/Cell Type: Escherichia coli polA (W3119 vs P3478), Assay Type: Rec-assay, DNA effects (bacterial DNA repair), Assay Code: RE1T, Evaluation Type: Evaluation A (Pre-1980)) “no conclusion”; under setting [5], “inactive; negative”; (Species/Cell Type: Human, Assay Type: Sister-chromatid exchange (SCE) in vitro, Assay Code: SC1-, Evaluation Type: Evaluation B (Post-1980)) “inactive; negative”; under setting [6], “inactive; negative”; (Species/Cell Type: Salmonella typhimurium (one or more of the five standard strains: TA98, TA100, TA1535, TA1537, and TA1538), Assay Type: Histidine reverse gene mutation, Ames assay, Assay Code: SAL+*, Activation: With metabolic activation, Evaluation Type: Evaluation A (Pre-1980)) “active; positive”. Moreover, where the note is “Species/Cell Type: Salmonella typhimurium, Assay Type: Forward and reverse gene mutation, host-mediated assay, Assay Code: HMA-, Evaluation Type: Evaluation A (Pre-1980)”, the mutagenic call is “inactive; negative”.
Consider `Clc1ccc2c(Cl)ccnc2c1`, for which the mutagenic call under setting [2] is on record as “no conclusion”.
For the molecule `CN[C@H]1[C@@H](O[C@@H]2C3CC#CC4O[C@@]4(C4COC(=O)O4)C#CC3=C[C@H]2OC(=O)c2c(O)ccc3c(C)cc(OC)cc23)O[C@H](C)[C@H](O)[C@@H]1O` (stereo not given in full), the mutagenic call is, setting by setting: (Species/Cell Type: Escherichia coli WP2, Assay Type: Tryptophan reverse gene mutation, Assay Code: WP2+D, Dose Response: With dose response, Evaluation Type: Evaluation A (Pre-1980)) “active; positive”; (Species/Cell Type: Escherichia coli WP2 UVRA, Assay Type: Tryptophan reverse gene mutation, Assay Code: WPU+D, Dose Response: With dose response, Evaluation Type: Evaluation A (Pre-1980)) “active; positive”; (Species/Cell Type: Human diploid fibroblasts, Assay Type: Unscheduled DNA synthesis (UDS) in vitro, DNA effects, Assay Code: UDH+D, Dose Response: With dose response, Evaluation Type: Evaluation A (Pre-1980)) “active; positive”; under setting [3], “active; positive”.
As for `ClC(Cl)=C(c1ccc(Cl)cc1)c1ccccc1Cl`, the mutagenic call (Species/Cell Type: Nonhuman, Assay Type: Chromosome aberrations in vitro, Assay Code: CY&-, Evaluation Type: Evaluation A (Pre-1980)) is “inactive; negative”.
On to `c1ccccc1`, for which the mutagenic call was “active; positive” (Species/Cell Type: Human lymphocytes or leukocytes, Assay Type: Chromosome aberrations in vitro, Assay Code: CY7+, Evaluation Type: Evaluation A (Pre-1980)); “active; positive” (Species/Cell Type: Human lymphocytes or leukocytes, Assay Type: Chromosome aberrations in vivo, Assay Code: CY8+, Evaluation Type: Evaluation A (Pre-1980)); “active; positive” (Species/Cell Type: Human lymphocytes, Assay Type: Sister-chromatid exchange (SCE) in vitro, Assay Code: SCL+*, Activation: With metabolic activation, Evaluation Type: Evaluation B (Post-1980)); “inactive; negative” (Species/Cell Type: Human lymphocytes, Assay Type: Sister-chromatid exchange (SCE) in vitro, Assay Code: SCL-, Evaluation Type: Evaluation A (Pre-1980)); “active; positive” (Species/Cell Type: Human lymphocytes, Assay Type: Sister-chromatid exchange (SCE) in vivo, Assay Code: SCY+, Evaluation Type: Evaluation B (Post-1980)); “active; positive” (Species/Cell Type: Human, Assay Type: Sister-chromatid exchange (SCE) in vitro, Assay Code: SC1+*, Activation: With metabolic activation, Evaluation Type: Evaluation B (Post-1980)). The mutagenic call is “inactive; negative” (Species/Cell Type: Human, Assay Type: Sister-chromatid exchange (SCE) in vitro, Assay Code: SC1-, Evaluation Type: Evaluation A (Pre-1980)); “active; positive” (Species/Cell Type: Mammalian polychromatic erythrocytes, Assay Type: Micronucleus test, chromosome aberrations, Assay Code: MNT+, Evaluation Type: Evaluation A (Pre-1980)); “active; positive” (Species/Cell Type: Mouse, Sex: Male, Assay Type: Sperm morphology, Assay Code: SPI+, Evaluation Type: Evaluation A (Pre-1980)); “active; positive” under setting [3]; “active; positive” (Species/Cell Type: Nonhuman, Assay Type: Sister-chromatid exchange (SCE) in vivo, Assay Code: SC3+D, Dose Response: With dose response, Evaluation Type: Evaluation B (Post-1980)); “inactive; negative” (Species/Cell Type: Syrian hamster embryo (SA7/SHE) cells, Assay Type: Cell transformation, viral enhanced, Assay Code: CT7-, Evaluation Type: Evaluation A (Pre-1980)). Further, the mutagenic call (Species/Cell Type: Tradescantia species, Assay Type: Gene mutation, Assay Code: TRM+D, Dose Response: With dose response, Evaluation Type: Evaluation A (Pre-1980)) is “active; positive”. Besides, the call under setting [1] was “active; positive”.
